Where “and” joins values, the source holds several entries; their conditions need not be identical. Identical values can stand only once. Like-named read-outs stand apart in the source and are kept apart here.
How the values were obtained:
[1] = target: prethrombin-2 (S195A mutant); parameters: method as in PMID 29511224; conditions: fluorescence titration at equilibrium; 400 mM ChCl, 50 mM Tris, 0.1% PEG8000, pH 8, 15 °C; read-out: Kd,app; cited from earlier work
thrombin mutant S195A [2] = tested on: thrombin mutant S195A; parameters: method as in PMID 29511224; conditions: cited from earlier work
prothrombin [3] = target: prothrombin; parameters: method as in PMID 29511224; conditions: fluorescence titration at equilibrium; 400 mM ChCl, 50 mM Tris, 0.1% PEG8000, pH 8, 15 °C; read-out: Kd,app; cited from earlier work
thrombin mutant S195A [4] = test: Equilibrium titration of intrinsic fluorescence, FPR binding to thrombin; conditions: thrombin versus prethrombin-2
From the text: Figure 3 Binding of FPR to thrombin.A, rapid kinetics of FPR binding to thrombin showing the fast ( α1 ) and slow ( α2 ) relaxations defining a mechanism of binding consistent with IF or CS (see also Fig. 1A). Continuous lines depict Equations 3 and 4 in the original report ([30]) with best-fit parameter values of Equation 1 or Equation 2 listed in Table 2. […] The discontinuous line for the slow relaxation was drawn with the empirical expression [α(0)xm+α(∞)x]/(xm+x) , where x = [FPR], with best-fit parameters listed in Table 2. The discontinuous line for the fast relaxation was drawn using Equation 3 with the four independent rate constants obtained from application of Equation 11 (Table 2). […] The four independent rate constants derived from application of the method compare well with the values determined from application of Equations 3 and 4 in the original report ([30]). […]
The value of Kd,app is obtained from titration of intrinsic fluorescence at equilibrium (Figs. 2B and 3B) according to the expression(13) F(x)=F0Kd,app+F1x/Kd,app+x=F0(1−ϑ)+F1ϑ where ϑ=x/(Kd,app+x) is the fractional saturation (Figs. 1C, 2B and 3B). […] At each value of the ligand concentration, the change in absorbance from the initial ( t=0 ) to final ( t=∞ ) state gives the equilibrium reading equivalent to F(x) in Equation 13.

thrombin mutant S195A [5] = target: thrombin mutant S195A; parameters: method as in PMID 29511224; conditions: fluorescence titration at equilibrium; 400 mM ChCl, 50 mM Tris, 0.1% PEG8000, pH 8, 15 °C; read-out: Kd,app; cited from earlier work
thrombin mutant S195A [6] = test: Rapid kinetics (stopped-flow) of FPR binding to thrombin
From the text: An important validation of the method is offered by application to a case where all rate constants have been determined from analysis of the two relaxations (Equations 3 and 4). In this case, one can assume no knowledge of the fast relaxation and consider only the slow relaxation and equilibrium titrations. We illustrate this point using FPR binding to the thrombin mutant S195A, inactivated at the catalytic S195 to prevent hydrolysis ([30]). Two relaxations were reported for this case, along with equilibrium titrations (Fig. 3, A and B). Analysis of the slow relaxation α2(x) yields α(0) = 0.60 ± 0.06 s^−1, α(∞) = 17 ± 2 s^−1, xm = 4.3 ± 0.4 μM, and α(xm) = 8.8 ± 0.9 s^−1 (Fig. 3A and Table 2). […] Interpretation of the binding mechanism in terms of CS gives k12 = 17 ± 2 s^−1 and koff = 0.60 ± 0.06 s^−1. Application of Equation 11 yields kon = 2.4 ± 0.2 μM^−1s^−1 and Equation 9 gives αˆ(0)=k12+k21 = 19 ± 2 s^−1 from which a value of k21 = 2.0 ± 0.2 s^−1 can be obtained (Table 2). These values are in excellent agreement with the ones reported originally from analysis of the two independent relaxations (Table 2) ([30]). When used in Equation 3 to predict the dependence of the fast relaxation α1(x) on [FPR], the curve (discontinuous line) deviates little from experimental data (Fig. 3A, top portion of the panel). Values derived from analysis of the two relaxations are obviously more rigorous and should be preferred when available, but the accuracy of values obtained by application of the method based on Equation 11 is noteworthy. The discrepancies in Table 2 between values of k21 for CS or koff and k32 for IF are small and the fast relaxation ( α1 in Fig. 3A) predicted from knowledge of a single, saturable relaxation ( α2 in Fig. 3A), and equilibrium binding measurements (Fig. 3B) is in excellent agreement with experimental data.
Figure 3 Binding of FPR to thrombin.A, rapid kinetics of FPR binding to thrombin showing the fast ( α1 ) and slow ( α2 ) relaxations defining a mechanism of binding consistent with IF or CS (see also Fig. 1A). Continuous lines depict Equations 3 and 4 in the original report ([30]) with best-fit parameter values of Equation 1 or Equation 2 listed in Table 2. […] The discontinuous line for the slow relaxation was drawn with the empirical expression [α(0)xm+α(∞)x]/(xm+x) , where x = [FPR], with best-fit parameters listed in Table 2. The discontinuous line for the fast relaxation was drawn using Equation 3 with the four independent rate constants obtained from application of Equation 11 (Table 2). The predicted fast relaxation (discontinuous line) approximates quite well the actual experimental data and lends confidence to the validity of the method. B, fractional saturation of FPR binding to thrombin. […] This value, together with the parameters derived from analysis of the slow relaxation in panel A, allows for derivation of the value of kon from Equation 11. The four independent rate constants derived from application of the method compare well with the values determined from application of Equations 3 and 4 in the original report ([30]). Data in panels A and B were taken from ([30]) and were obtained under the following experimental conditions: 400 mM ChCl, 50 mM Tris, 0.1% PEG8000, pH 8, at 15 °C. CS, conformational selection; FPR, H-D-Phe-Pro-Arg-p-nitroanilide; IF, induced fit.
(§1) The data analyzed in this study, that is, FPR binding to prethrombin-2, prothrombin, and thrombin (Figs. 2, A and B and 3, A and B) were taken from ([30]) without modification. The methodology used to produce the recombinant proteins, measure FPR binding by stopped-flow or equilibrium titrations is reported in ([30]) and references therein. Values of the slow relaxation α(x) (Fig. 1, A and B, 2A and 3A) are measured by stopped-slow as a function of the ligand concentration and derived from fit of the time evolution of the interaction according to the expression ([1])(12) A(x,t)=A0(x)+A1(x)exp{−α(x)t}

prothrombin [7] = test: Rapid kinetics (stopped-flow) of FPR binding to prothrombin; conditions: model independent, fit of data from ref 30
From the text: (§2) Figure 2 Binding of FPR to thrombin zymogens.A, rapid kinetics of FPR binding to the zymogens prothrombin (closed circles) and prethrombin-2 (open circles), showing a saturable relaxation associated with the interaction. The lack of information on a fast relaxation increasing linearly with [FPR] prevented assignment of the value of kon in the original report ([30]). Curves were drawn with the empirical expression [α(0)xm+α(∞)x]/(xm+x) , where x =[FPR], with best-fit parameters listed in Table 2. B, fractional saturation of FPR binding to prothrombin (closed circles) and prethrombin-2 (open circles). These values, together with the parameters derived from the plots in panel A, allow for derivation of the value of kon from Equation 11. […] Data in panels A and B were taken from ([30]) and were obtained under the following experimental conditions: 400 mM ChCl, 50 mM Tris, 0.1% PEG8000, pH 8, at 15 °C. CS, conformational selection; FPR, H-D-Phe-Pro-Arg-p-nitroanilide; IF, induced fit.
The method also offers a simple test of whether the experimental data under consideration require more complex binding mechanisms than IF or CS. This is an important property of the method that may prompt reconsideration of current interpretations of ligand binding in terms of IF or CS made from analysis of a single saturable relaxation. The denominator of Equation 11 introduces a constraint on the relative values of Kd,app and xm . If the resulting term is negative, the model independent parameters (Equations (5), (6), (7) and 10) of the slow relaxation cannot be interpreted in terms of IF or CS. The data describing the kinetic relaxation (Fig. 1, A and B) and equilibrium binding (Fig. 1C) become incompatible when interpreted with Equations 9 and 10 and more elaborate mechanisms should be considered. We illustrate this point for the case of FPR binding to prothrombin, which is the physiological zymogen precursor of thrombin ([23]). Prothrombin is composed of a protease domain identical to prethrombin-2 linked to additional kringles and Gla domains that are shed during activation to thrombin by prothrombinase in the penultimate step of the coagulation cascade ([23], [31]). Because prothrombin and prethrombin-2 share the same protease domain, binding of FPR may be expected to take place with a similar affinity and mechanism in the two zymogens. […]
The data analyzed in this study, that is, FPR binding to prethrombin-2, prothrombin, and thrombin (Figs. 2, A and B and 3, A and B) were taken from ([30]) without modification. […] Values of the slow relaxation α(x) (Fig. 1, A and B, 2A and 3A) are measured by stopped-slow as a function of the ligand concentration and derived from fit of the time evolution of the interaction according to the expression ([1])(12) A(x,t)=A0(x)+A1(x)exp{−α(x)t}

[8] = tested on: prethrombin-2 (S195A mutant); test: Rapid kinetics (stopped-flow) of FPR binding to prethrombin-2
From the text: Rapid kinetics of FPR binding to thrombin resolved the two independent relaxations (Equations 3 and 4) for CS and the four independent rate constants. On the other hand, similar measurements for prethrombin-2 produced only a saturable relaxation increasing with [FPR] (Fig. 2A) ([30]), thereby preventing resolution of the four independent constants and a full comparison with the mature protease thrombin. This situation provides an ideal test for application of the method based on Equation 11. The saturable relaxation for FPR binding to prethrombin-2 increases from α(0) = […] to α(∞) = 150 ± 20 s^−1, with a midpoint xm = 200 ± 20 μM and α(xm) = 88 ± 9 s^−1 (Fig. 2A and Table 2). […] Interpretation of the saturable relaxation in terms of CS gives k12 = 150 ± 20 s^−1 and koff = 25 ± 3 s^−1. Application of Equation 11 then yields kon = 4.0 ± 0.4 μM^−1s^−1 and Equation 9 gives αˆ(0)=k12+k21 = 890 ± 90 s^−1, so k21 = 740 ± 70 s^−1 (Table 2). The value of kon is almost identical to that reported for the mature protease thrombin (2.6 ± 0.3 μM^−1s^−1), whilst the value of koff is 40-fold higher (25 ± 3 s^−1 versus 0.60 ± 0.06 s^−1) ([30]). […] The conclusion is independent of whether FPR binding to prethrombin-2 is interpreted according to CS or IF. Application of the conversion formulas in Table 1 gives rate constants for IF equal to kon = 4.0 ± 0.4 μM^−1s^−1, koff = 765 ± 80 s^−1, k23 = 120 ± 10 s^−1, and k32 = 29 ± 3 s^−1 (Table 2), thereby making the contribution of a decreased rate of dissociation in the protease even more evident. Importantly, the two sets of rate constants for IF and CS yield the same value for Kd,app (Table 2), as shown by application of Equation 10 and the conversion formulas in Table 1. The importance of koff in setting the difference between ligand binding to prethrombin-2 and thrombin was anticipated by previous studies ([30]). The method based on Equation 11 provides a quantitative estimate of the difference and adds rigor to previous conclusions.
as §2, §1

thrombin = tested on: thrombin; parameters: method as in PMID 23467412; conditions: thrombin versus zymogen prethrombin-2; cited from earlier work
[9] = CS, from analysis of two relaxations
[10] = model independent, derived from Equation 11
[11] = model independent, 400 mM ChCl, 50 mM Tris, 0.1% PEG8000, pH 8, 15 °C, fit of data from ref 30
[12] = model independent, pH 8, 15 °C, fit of data from ref 30
[13] = IF, conversion formulas of Table 1

## N=C(N)NCCC[C@H](NC(=O)[C@@H]1CCCN1C(=O)[C@H](N)Cc1ccccc1)C(=O)Nc1ccc([N+](=O)[O-])cc1 [FPR, H-D-Phe-Pro-Arg-p-nitroanilide]
[1]
  Kd: 37 ± 4 µM
Thrombin mutant S195A [2]; [9]
  k12: 16 ± 1 s⁻¹
  k21: 3.8 ± 0.8 s⁻¹
  koffCS: 0.6 ± 0.1 s⁻¹
  konCS: 2.6 ± 0.3 µM⁻¹ s⁻¹
Thrombin mutant S195A [2]; IF
  k23: 13 ± 1 (13 ± 1) s^−1
  k32: 2.6 ± 0.3 s⁻¹
  koffIF: 4.4 ± 0.4 s⁻¹
  konIF: 2.6 ± 0.3 µM⁻¹ s⁻¹
Prothrombin [3]
  Kd: 195 ± 20 µM
Thrombin mutant S195A [4]
  difference in equilibrium binding affinity between prethrombin-2 and thrombin: > 100 fold
Thrombin mutant S195A [5]
  Kd: 280 ± 20 nM
Thrombin mutant S195A [6]; CS, from Equation 9
  αˆ(0)=k12+k21: 19 ± 2 s⁻¹
Thrombin mutant S195A [6]; CS, method of this paper
  k12: 17 ± 2 s⁻¹
  k21: 2.0 ± 0.2 s⁻¹
  koffCS: 0.60 ± 0.06 s⁻¹
Thrombin mutant S195A [6]; CS, method of this paper (Equation 11)
  konCS: 2.4 ± 0.2 µM⁻¹ s⁻¹
Thrombin mutant S195A [6]; IF, method of this paper
  k23: 13 ± 1 (13 ± 1) s^−1
  k32: 4.4 ± 0.4 s⁻¹
  koffIF: 2.6 ± 0.3 s⁻¹
  konIF: 2.4 ± 0.2 µM⁻¹ s⁻¹
Thrombin mutant S195A [6]; [10]
  kon: 2.4 ± 0.2 µM⁻¹ s⁻¹
Thrombin mutant S195A [6]; [11]
  α(0), lower asymptote of slow relaxation: 0.60 ± 0.06 s⁻¹
  α(∞), asymptote of slow relaxation: 17 ± 2 s⁻¹
Thrombin mutant S195A [6]; [12]
  xm, midpoint of the slow relaxation: 4.3 ± 0.4 µM
  α(xm), slow relaxation at midpoint: 8.8 ± 0.9 s⁻¹
Prothrombin [7]; 400 mM ChCl, 50 mM Tris, 0.1% PEG8000, pH 8, 15 °C
  α(0), asymptote of slow relaxation: 45 ± 4 s⁻¹ and 45 ± 5 s⁻¹
Prothrombin [7]; pH 8, 15 °C
  xm, midpoint of the slow relaxation: 54 ± 5 µM
  α(xm), slow relaxation at midpoint: 26 ± 3 s⁻¹
  α(∞), asymptote of slow relaxation: 6.9 ± 0.7 s⁻¹
[8]; CS, from Equation 9
  αˆ(0)=k12+k21: 890 ± 90 s⁻¹
[8]; CS, method of this paper
  k12: 150 ± 20 s⁻¹ and 150 ± 10 s⁻¹
  k21: 740 ± 70 s⁻¹
  koffCS: 25 ± 3 s⁻¹
  konCS: 4.0 ± 0.4 µM⁻¹ s⁻¹
[8]; CS, prethrombin-2 versus thrombin
  koff higher for prethrombin-2 than for thrombin: 40 fold
[8]; [13]
  k23: 120 ± 10 s⁻¹
  k32: 29 ± 3 s⁻¹
  koffIF: 765 ± 80 s⁻¹
  konIF: 4.0 ± 0.4 µM⁻¹ s⁻¹
[8]; [10]
  kon: 4.0 ± 0.4 µM⁻¹ s⁻¹
[8]; [11]
  α(0), lower asymptote of slow relaxation: 25 ± 0.3 s⁻¹ and 25 ± 2 s⁻¹
[8]; [12]
  xm, midpoint of the slow relaxation: 200 ± 20 µM
  α(xm), slow relaxation at midpoint: 88 ± 9 s⁻¹
  α(∞), asymptote of slow relaxation: 150 ± 20 s⁻¹ and 150 ± 10 s⁻¹

## CC1CNc2c(cccc2S(=O)(=O)N[C@@H](CCCNC(=N)N)C(=O)N2CC[C@@H](C)C[C@@H]2C(=O)O)C1 (stereo partly shown) [argatroban]
thrombin
  affinity for thrombin higher than for prethrombin-2: 200 fold

— article PMC10979105, “A simple method to resolve rate constants when the binding mechanism obeys induced fit or conformational selection” (The Journal of Biological Chemistry, 2024)
